PubChem BioAssay (NCI)
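Protocol summary: plate cells (96-well), add compound at 5 concentrations, incubate 48 h, interpolate endpoints linearly. GI50 = concentration required for 50% inhibition of growth. At the TGI there is no net growth.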

What was measured:
Assay in all cases: NCI-60 cell line screen, 48 h
BT-549 breast = tested on: BT-549 breast
HS 578T breast = tested on: HS 578T breast
NCI-H226 lung = tested on: NCI-H226 lung
RXF 393 renal = tested on: RXF 393 renal
SF-268 CNS = tested on: SF-268 CNS
SNB-75 CNS = tested on: SNB-75 CNS
786-0 renal = tested on: 786-0 renal
A498 renal = tested on: A498 renal
A549 NSCLC = tested on: A549 NSCLC
ACHN renal = tested on: ACHN renal
CAKI-1 renal = tested on: CAKI-1 renal
CCRF-CEM leukemia = tested on: CCRF-CEM leukemia
COLO 205 colon = tested on: COLO 205 colon
DU-145 prostate = tested on: DU-145 prostate
EKVX NSCLC = tested on: EKVX NSCLC
HCC-2998 colon = tested on: HCC-2998 colon
HCT-116 colon = tested on: HCT-116 colon
HCT-15 colon = tested on: HCT-15 colon
HL-60(TB) leukemia = tested on: HL-60(TB) leukemia
HOP-62 NSCLC = tested on: HOP-62 NSCLC
HOP-92 NSCLC = tested on: HOP-92 NSCLC
HT29 colon = tested on: HT29 colon
IGROV1 ovarian = tested on: IGROV1 ovarian
K-562 leukemia = tested on: K-562 leukemia
KM12 colon = tested on: KM12 colon
LOX IMVI melanoma = tested on: LOX IMVI melanoma
M14 melanoma = tested on: M14 melanoma
MALME-3M melanoma = tested on: MALME-3M melanoma
MCF7 breast = tested on: MCF7 breast
MDA-MB-231 breast = tested on: MDA-MB-231 breast
MDA-MB-435 = tested on: MDA-MB-435
MOLT-4 leukemia = tested on: MOLT-4 leukemia
NCI-H23 lung = tested on: NCI-H23 lung
NCI-H460 lung = tested on: NCI-H460 lung
NCI-H522 lung = tested on: NCI-H522 lung
NCI/ADR-RES ovarian = tested on: NCI/ADR-RES ovarian
OVCAR-4 ovarian = tested on: OVCAR-4 ovarian
OVCAR-5 ovarian = tested on: OVCAR-5 ovarian
OVCAR-8 ovarian = tested on: OVCAR-8 ovarian
PC-3 prostate = tested on: PC-3 prostate
RPMI-8226 leukemia = tested on: RPMI-8226 leukemia
SF-295 CNS = tested on: SF-295 CNS
SF-539 CNS = tested on: SF-539 CNS
SK-MEL-2 melanoma = tested on: SK-MEL-2 melanoma
SK-MEL-28 melanoma = tested on: SK-MEL-28 melanoma
SK-MEL-5 melanoma = tested on: SK-MEL-5 melanoma
SK-OV-3 ovarian = tested on: SK-OV-3 ovarian
SN12C renal = tested on: SN12C renal
SNB-19 CNS = tested on: SNB-19 CNS
SR leukemia = tested on: SR leukemia
SW-620 colon = tested on: SW-620 colon
T-47D breast = tested on: T-47D breast
TK-10 renal = tested on: TK-10 renal
U251 CNS = tested on: U251 CNS
UACC-257 melanoma = tested on: UACC-257 melanoma
UACC-62 melanoma = tested on: UACC-62 melanoma
UO-31 renal = tested on: UO-31 renal

Which results are given for `COc1ccc(-c2nc3cc(Cl)c(Cl)cc3n2CC(=O)N=Nc2c(O)[nH]c3ccc(Br)cc23)cc1`?
GI50 (BT-549 breast): 6730 nM; TGI (BT-549 breast): > 100000 nM; GI50 (HS 578T breast): 2050 nM; TGI (HS 578T breast): 5720 nM; GI50 (NCI-H226 lung): 3750 nM; TGI (NCI-H226 lung): > 100000 nM; GI50 (RXF 393 renal): 1870 nM; TGI (RXF 393 renal): 3710 nM; GI50 (SF-268 CNS): 3620 nM; TGI (SF-268 CNS): > 100000 nM; GI50 (SNB-75 CNS): 2110 nM; TGI (SNB-75 CNS): 12400 nM

What does the source list for `O=C(NNc1nc2cc(F)cc(F)c2n2cccc12)c1cnccn1`?
GI50 (786-0 renal): 371 nM; TGI (786-0 renal): 4020 nM; GI50 (A498 renal): 1370 nM; TGI (A498 renal): 5570 nM; GI50 (A549 NSCLC): 288 nM; TGI (A549 NSCLC): 11300 nM; GI50 (ACHN renal): 239 nM; TGI (ACHN renal): 10600 nM; GI50 (BT-549 breast): 1120 nM; TGI (BT-549 breast): 7680 nM; GI50 (CAKI-1 renal): 340 nM; TGI (CAKI-1 renal): 6660 nM; GI50 (CCRF-CEM leukemia): 163 nM; TGI (CCRF-CEM leukemia): > 100000 nM; GI50 (COLO 205 colon): 324 nM; TGI (COLO 205 colon): 4560 nM; GI50 (DU-145 prostate): 457 nM; TGI (DU-145 prostate): 13700 nM; GI50 (EKVX NSCLC): 320 nM; TGI (EKVX NSCLC): 12000 nM; GI50 (HCC-2998 colon): 564 nM; TGI (HCC-2998 colon): 14900 nM; GI50 (HCT-116 colon): 297 nM; TGI (HCT-116 colon): 6790 nM; GI50 (HCT-15 colon): 106 nM; TGI (HCT-15 colon): 21300 nM; GI50 (HL-60(TB) leukemia): 263 nM; GI50 (HOP-62 NSCLC): 147 nM; TGI (HOP-62 NSCLC): 4170 nM; GI50 (HOP-92 NSCLC): 851 nM; TGI (HOP-92 NSCLC): 7350 nM; GI50 (HS 578T breast): 1740 nM; TGI (HS 578T breast): 24100 nM; GI50 (HT29 colon): 571 nM; TGI (HT29 colon): 8730 nM; GI50 (IGROV1 ovarian): 206 nM; TGI (IGROV1 ovarian): 10700 nM; GI50 (K-562 leukemia): 364 nM; TGI (K-562 leukemia): > 100000 nM; GI50 (KM12 colon): 311 nM; TGI (KM12 colon): 12600 nM; GI50 (LOX IMVI melanoma): 211 nM; TGI (LOX IMVI melanoma): 5930 nM; GI50 (M14 melanoma): 279 nM; TGI (M14 melanoma): 2850 nM; GI50 (MALME-3M melanoma): 904 nM; TGI (MALME-3M melanoma): 10400 nM; GI50 (MCF7 breast): 353 nM; TGI (MCF7 breast): 7610 nM; GI50 (MDA-MB-231 breast): 807 nM; TGI (MDA-MB-231 breast): 12300 nM; GI50 (MDA-MB-435): 610 nM; TGI (MDA-MB-435): 13500 nM; GI50 (MOLT-4 leukemia): 291 nM; TGI (MOLT-4 leukemia): > 100000 nM; GI50 (NCI-H226 lung): 1120 nM; TGI (NCI-H226 lung): 6890 nM; GI50 (NCI-H23 lung): 872 nM; TGI (NCI-H23 lung): 15800 nM; GI50 (NCI-H460 lung): 178 nM; TGI (NCI-H460 lung): 3010 nM; GI50 (NCI-H522 lung): 392 nM; TGI (NCI-H522 lung): 7500 nM; GI50 (NCI/ADR-RES ovarian): 278 nM; TGI (NCI/ADR-RES ovarian): 5220 nM; GI50 (OVCAR-4 ovarian): 302 nM; TGI (OVCAR-4 ovarian): 8990 nM; GI50 (OVCAR-5 ovarian): 715 nM; TGI (OVCAR-5 ovarian): 14400 nM; GI50 (OVCAR-8 ovarian): 279 nM; TGI (OVCAR-8 ovarian): 4910 nM; GI50 (PC-3 prostate): 448 nM; TGI (PC-3 prostate): 13500 nM; GI50 (RPMI-8226 leukemia): 379 nM; TGI (RPMI-8226 leukemia): > 100000 nM; GI50 (RXF 393 renal): 659 nM; TGI (RXF 393 renal): 4770 nM; GI50 (SF-268 CNS): 365 nM; TGI (SF-268 CNS): 14500 nM; GI50 (SF-295 CNS): 250 nM; TGI (SF-295 CNS): 6450 nM; GI50 (SF-539 CNS): 436 nM; TGI (SF-539 CNS): 10300 nM; GI50 (SK-MEL-2 melanoma): 893 nM; TGI (SK-MEL-2 melanoma): 4370 nM; GI50 (SK-MEL-28 melanoma): 549 nM; TGI (SK-MEL-28 melanoma): 13500 nM; GI50 (SK-MEL-5 melanoma): 1050 nM; TGI (SK-MEL-5 melanoma): 5760 nM; GI50 (SK-OV-3 ovarian): 539 nM; TGI (SK-OV-3 ovarian): 7270 nM; GI50 (SN12C renal): 641 nM; TGI (SN12C renal): 15000 nM; GI50 (SNB-19 CNS): 426 nM; TGI (SNB-19 CNS): 16900 nM; GI50 (SNB-75 CNS): 1130 nM; TGI (SNB-75 CNS): 9370 nM; GI50 (SR leukemia): 80.1 nM; TGI (SR leukemia): > 87800 nM; GI50 (SW-620 colon): 402 nM; TGI (SW-620 colon): 14400 nM; GI50 (T-47D breast): 403 nM; TGI (T-47D breast): 12600 nM; GI50 (TK-10 renal): 613 nM; TGI (TK-10 renal): 10500 nM; GI50 (U251 CNS): 172 nM; TGI (U251 CNS): 8920 nM; GI50 (UACC-257 melanoma): 587 nM; TGI (UACC-257 melanoma): 3430 nM; GI50 (UACC-62 melanoma): 407 nM; TGI (UACC-62 melanoma): 3850 nM; GI50 (UO-31 renal): 107 nM; TGI (UO-31 renal): 2930 nM
